# Assay results published in patent US6482859B1, “Microbicidal N-sulfonylglycin alkynyloxyphenethyl amide derivatives” (priority 1997, dated 2002).
smiles,measurement,value
"CCCS(=O)(=O)N[C@H](C(=O)NCCc1ccc(OCC#Cc2ccc(Cl)cc2)c(OC)c1)C(C)C [Compound 1.204, (S)-2-(Propylsulfonyl-amino)-3-methyl-butyric acid N-[2-{3-methoxy-4-(3-(4-chlorophenyl)-2-propyn-1-yloxy)-phenyl}-ethyl]-amide]",melting point,131 to 133 °C
